Patent US5750530A, “Pharmaceutical diketopiperazine compounds” (Xenova Limited, priority 1994, dated 1998)
Counter-ions that a name gives are not always drawn. Like-named read-outs stand apart in the source and are kept apart here.

Biological target: PAI-1 (Homo sapiens, UniProt P05121)
Assay: biochemical
Assay type: biochemical
Description: The present compounds have been tested in a PAI functional assay. In this assay, a compound is incubated with PAI-1 prior to addition to the tPA assay system. Inhibition of PAI-1 results in the production of plasmin from plasminogen. In turn, plasmin cleaves the chromogenic substrate S2251 (Kabi Vitrum) producing pNA (p-nitroaniline) which is detected spectrophotometrically at 405 nm (K. Nilsson et al, Fibrinolysis (1987) 1, 163-168).
The present compounds were tested in a PAI chromogenic substrate assay. In the assay (K. Nilsson, Fibrinolysis (1987) 1, 163-168) each compound was incubated with PAI-1 prior to addition to the tPA assay system. […] In turn, the plasmin cleaved the chromogenic substrate S2251 (Kabi-Vitrum) producing pNA (p-nitroaniline) which was detected spectrophotometrically at 405 nm.
The degrees of inhibition observed in the chromogenic substrate assay at various concentrations, or the IC50 values, for each compound are presented in Table 1.

[1] = PAI chromogenic substrate assay

PAI-1, sequence (P05121 24-402): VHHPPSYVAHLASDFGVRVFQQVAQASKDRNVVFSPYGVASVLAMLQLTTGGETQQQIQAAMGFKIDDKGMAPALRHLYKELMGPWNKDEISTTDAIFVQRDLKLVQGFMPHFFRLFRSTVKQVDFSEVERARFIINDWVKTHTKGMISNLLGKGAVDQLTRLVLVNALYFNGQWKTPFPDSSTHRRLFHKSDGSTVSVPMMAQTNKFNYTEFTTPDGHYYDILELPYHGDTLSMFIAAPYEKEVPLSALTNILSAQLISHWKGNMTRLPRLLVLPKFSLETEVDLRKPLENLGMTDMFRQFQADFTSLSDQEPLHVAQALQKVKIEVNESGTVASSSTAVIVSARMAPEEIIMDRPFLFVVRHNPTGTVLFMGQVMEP

% Inhibition (5 μm)	% Inhibition (20 μm)	IC50 [1]	% Inhibition (100 μm)	IC50	Compound
20%	36%				CN(C)CCSc1ccc(/C=c2\[nH]c(=O)/c(=C/c3ccc(C(C)(C)C)cc3)[nH]c2=O)cc1 [Compound 5440.HCl, (3Z,6Z)-3-(4-(2-Dimethylaminoethylthio)benzylidene)-6-(4-tert-butylbenzylidene)-2,5-piperazinedione]
15%	60%	8.6 µM			CN(C)CCSc1ccc(/C=c2\[nH]c(=O)/c(=C/c3cccc(OCc4ccccc4)c3)[nH]c2=O)s1 [Compound 5487, (3Z,6Z)-6-(3-Benzyloxybenzylidene)-3-(5-(2-dimethylaminoethylthio)-2-thienyl)methylene-2,5-piperazinedione]
53%	74%	5.2 µM			CN(C)CCSc1ccc(/C=c2\[nH]c(=O)/c(=C/c3ccc(Br)cc3)[nH]c2=O)cc1 [Compound 5480, (3Z,6Z)-3-(4-Bromobenzylidene)-6-(4-(2-dimethylaminoethylthio)benzylidene)-2,5-piperazinedione]
13%	55%	20 µM			CN(C)CCSc1ccc(/C=c2\[nH]c(=O)/c(=C/c3cccc(OCc4ccccc4)c3)[nH]c2=O)cc1 [Compound 5486, (3Z,6Z)-3-(3-Benzyloxybenzylidene)-6-(4-(2-dimethylaminoethylthio)benzylidene)-2,5-piperazinedione]
23%	43%				CC(C)N(CCSc1ccc(/C=c2\[nH]c(=O)/c(=C/c3ccccc3)[nH]c2=O)s1)C(C)C [Compound 5399, (3Z,6Z)-6-Benzylidene-3-(5-(2-diisopropylaminoethylthio)-2-thienyl)methylene-2,5-piperazinedione]
76%	78%	4 µM			Cc1ccc(/C=c2\[nH]c(=O)/c(=C/c3ccc(SCCN(C)C)cc3)[nH]c2=O)cc1 [Compound 5463, (3Z,6Z)-3-(4-(2-Dimethylaminoethylthio)benzylidene)-6-(4-methylbenzylidene)-2,5-piperazinedione]
12%	50%	20 µM			CN(C)CCSc1ccc(/C=c2\[nH]c(=O)/c(=C/c3ccc(OCc4ccccc4)cc3)[nH]c2=O)s1 [Compound 5482, (3Z,6Z)-6-(4-Benzyloxybenzylidene)-3-(5-(2-dimethylaminoethylthio)-2-thienyl)methylene-2,5-piperazinedione]
32%	73%	3.6 µM			CN(C)CCSc1ccc(/C=c2\[nH]c(=O)/c(=C/c3ccc(Cl)c(Cl)c3)[nH]c2=O)cc1 [Compound 5465, (3Z,6Z)-3-(3,4-Dichlorobenzylidene)-6-(4-(2-dimethylaminoethylthio)benzylidene)-2,5-piperazinedione]
0%	54%	18.4 µM			COc1ccc2ccccc2c1/C=c1\[nH]c(=O)/c(=C/c2ccc(SCCN(C)C)s2)[nH]c1=O [Compound 5499.HCl, (3Z,6Z)-3-(5-(2-Dimethylaminoethylthio)-2-thienyl)methylene-6-(2-methoxy-1-naphthyl)methylene-2,5-piperazinedione]
35%	55%	5.4 µM			CSc1ccc(/C=c2\[nH]c(=O)/c(=C/c3ccc(SCCN(C)C)cc3)[nH]c2=O)cc1 [Compound 5426.HCl, (3Z,6Z)-3-(4-(2-Dimethylaminoethylthio)benzylidene)-6-(4-methylthiobenzyidene)-2,5-piperazinedione]
0%	32%				CN(C)CCSc1ccc(/C=c2\[nH]c(=O)/c(=C/CC(C)(C)C)[nH]c2=O)s1 [Compound 5502.HCl, (3Z,6Z)-3-(5-(2-Dimethylaminoethylthio)-2-thienyl)methylene-6-(3,3-dimethyl-1-butylidene)-2,5-piperazinedione]
10%	56%				CN(C)CCSc1ccc(/C=c2\[nH]c(=O)/c(=C/c3ccc([N+](=O)[O-])cc3)[nH]c2=O)cc1 [Compound 5461.HCl, (3Z,6Z)-3-(4-(2-Dimethylaminoethylthio)benzylidene)-6-(4-nitrobenzylidene)-2,5-piperazinedione]
25%	52%	5.7 µM			CSc1ccc(/C=c2\[nH]c(=O)/c(=C/c3ccc(SCCN(C)C)cc3)[nH]c2=O)cc1 [Compound 5426, (3Z,6Z)-3-(4-(2-Dimethylaminoethylthio)benzylidene)-6-(4-methylthiobenzyidene)-2,5-piperazinedione]
10%	54%	20 µM			CN(C)CCSc1ccc(/C=c2\[nH]c(=O)/c(=C/c3cn(C)c4ccccc34)[nH]c2=O)s1 [Compound 5473.HCl, (3Z,6Z)-6-(5-(2-Dimethylaminoethylthio)-2-thienyl)methylene-3-(1-methyl-3-indolyl)methylene-2,5-piperazinedione]
13%	59%				CN(C)CCSc1ccc(/C=c2\[nH]c(=O)/c(=C/c3ccc(OCc4ccccc4)cc3)[nH]c2=O)s1 [Compound 5482.HCl, (3Z,6Z)-6-(4-Benzyloxybenzylidene)-3-(5-(2-dimethylaminoethylthio)-2-thienyl)methylene-2,5-piperazinedione]

Continued, compound first:

Compound	% Inhibition (5 μm)	% Inhibition (20 μm)	IC50 [1]	% Inhibition (100 μm)	IC50
CN(C)CCSc1ccc(/C=c2\[nH]c(=O)/c(=C/c3ccnc4ccccc34)[nH]c2=O)s1 [Compound 5307.HCl, (3Z,6Z)-6-(5-(2-Dimethylaminoethylthio)-2-thienyl)methylene-3-(4-quinolylmethylene)-2,5-piperazinedione]			18 µM		
CN(C)CCSc1ccc(/C=c2\[nH]c(=O)/c(=C/c3ccsc3)[nH]c2=O)s1 [Compound 5257, (3Z,6Z)-3-(5-(2-Dimethylaminoethylthio)-2-thienyl)methylene-6-(3-thienyl)methylene-2,5-piperazinedione]		77%	7 µM	41%	
CN(C)CCSc1ccc(/C=c2\[nH]c(=O)/c(=C/c3ccc4c(c3)OCO4)[nH]c2=O)s1 [Compound 5279, (3Z,6Z)-3-(5-(2-Dimethylaminoethylthio)-2-thienyl)methylene-6-(3,4-methylenedioxybenzylidene)-2,5-piperazinedione]		64%		68%	20 µM
CN(C)CCSc1ccc(/C=c2\[nH]c(=O)/c(=C/c3ccc4ccccc4n3)[nH]c2=O)s1 [Compound 5308, (3Z,6Z)-6-(5-(2-Dimethylaminoethylthio)-2-thienyl)methylene-3-(2-quinolylmethylene)-2,5-piperazinedione]		81%	4.7 µM	80%	
COc1cccc(/C=c2\[nH]c(=O)/c(=C/c3ccc(SCCN(C)C)s3)[nH]c2=O)c1 [Compound 5314, (3Z,6Z)-3-(5-(2-Dimethylaminoethylthio)-2-thienyl)methylene-6-(3-methoxybenzylidene)-2,5-piperazinedione]			3.5 µM		
COc1cccc(/C=c2\[nH]c(=O)/c(=C/c3ccc(SCCN(C)C)cc3)[nH]c2=O)c1 [Compound 5438, (3Z,6Z)-6-(4-(2-Dimethylaminoethylthio)benzylidene)-3-(3-methoxybenzylidene)-2,5-piperazinedione]		18%			
CN(C)CCSc1ccc(/C=c2\[nH]c(=O)/c(=C/c3ccc(C(F)(F)F)cc3)[nH]c2=O)s1 [Compound 5293, (3Z,6Z)-3-(5-(2-Dimethylaminoethylthio)-2-thienyl)methylene-6-(4-trifluoromethylbenzylidene)-2,5-piperazinedione]			20 µM		
CN(C)CCSc1ccc(/C=c2\[nH]c(=O)/c(=C/c3ccnc4ccccc34)[nH]c2=O)s1 [Compound 5307, (3Z,6Z)-6-(5-(2-Dimethylaminoethylthio)-2-thienyl)methylene-3-(4-quinolylmethylene)-2,5-piperazinedione]		83%	8.5 µM	88%	
CN(C)CCSc1ccc(/C=c2\[nH]c(=O)/c(=C/c3cccc(C(F)(F)F)c3)[nH]c2=O)cc1 [Compound 5423, (3Z,6Z)-6-(4-(2-Dimethylaminoethylthio)benzylidene)-3-(3-trifluoromethylbenzylidene)-2,5-piperazinedione]		11%			
CN(C)CCSc1ccc(/C=c2\[nH]c(=O)/c(=C/c3ccccc3Br)[nH]c2=O)s1 [Compound 5313.HCl, (3Z,6Z)-6-(2-Bromobenzylidene)-3-(5-(2-dimethylaminoethylthio)-2-thienyl)methylene-2,5-piperazinedione]			20 µM		
CN(C)CCSc1ccc(/C=c2\[nH]c(=O)/c(=C/c3ccc4ccccc4c3)[nH]c2=O)cc1 [Compound 5284, (3Z,6Z)-6-(4-(2-Dimethylaminoethylthio)benzylidene)-3-(2-naphthylmethylene)-2,5-piperazinedione]			3 µM		
CN(C)CCSc1ccc(/C=c2\[nH]c(=O)/c(=C/c3cccc(C(F)(F)F)c3)[nH]c2=O)s1 [Compound 5315, (3Z,6Z)-3-(5-(2-Dimethylaminoethylthio)-2-thienyl)methylene-6-(3-trifluoromethylbenzylidene)-2,5-piperazinedione]			20 µM		
CN(C)CCSc1ccc(/C=c2\[nH]c(=O)/c(=C/c3cccc(Cl)c3)[nH]c2=O)cc1 [Compound 5292.HCl, (3Z,6Z)-3-(3-Chlorobenzylidene)-6-(4-(2-dimethylaminoethylthio)benzylidene)-2,5-piperazinedione]			2 µM		
